Data: paper PMC10835732, “Pharmacokinetics of Hydroxytyrosol and Its Sulfate and Glucuronide Metabolites after the Oral Administration of Table Olives to Sprague-Dawley Rats” (Journal of Agricultural and Food Chemistry, 2024)
Like-named read-outs stand apart in the source and are kept apart here. Marks after values point to notes of the source that are not given here.

Legend:
[1] = Plasma pharmacokinetics (noncompartmental analysis) after single oral administration of Arbequina table olives; assay type: in vivo, Sprague-Dawley rats; conditions: for AUC0–∞ / Cmax/D / AUC0–∞/D / AUCt/D / Cl/F·fm (apparent clearance of metabolite) / MRT0–∞ / Vdarea/F·fm (apparent volume of distribution of metabolite, terminal phase) / Vss/F·fm (apparent steady-state volume of distribution of metabolite) / t1/2λz (apparent elimination half-life) / λz (apparent elimination rate constant) / AUCt / Cmax: geometric mean (95% CI); for Cmax/D: D = dose of hydroxytyrosol in nmol; for AUC0–∞/D / AUCt/D: D in nmol; for Tmax: median (min, max); for AUCt: time zero up to 8 h; for Cmax / percentage of the AUC of each compound divided by the AUC of the sum of all of them: plasma; for Cmax: read-out: Cmax; for half-life (t1/2λz) / mean residence time (MRT0–∞): oral table olives; for percentage of the AUC of each compound divided by the AUC of the sum of all of them: both doses (similar ratios between doses)
Procedure: The experiments were performed using Sprague–Dawley rats (n = 13) randomly divided into two groups, the 30 olives group (n = 6) that received the dose of 3.85 g/kg and the 60 olives group (n = 7), which was given the dose of 7.70 g/kg. The freshly prepared homogeneous suspensions were given to overnight fasted rats by oral gavage (18-gauge × 76 mm, ref FFSS-186-76, Instech Laboratories, Inc., Plymouth Meeting, PA). The volume of administration was 10 mL/kg. After the single administration of Arbequina table olives, blood was obtained at 30, 60, 90, 120, 240, 360, and 480 min from each animal. Samples were withdrawn from the lateral saphenous vein and placed into Microvette CB 300 K2 EDTA-K2 (Sarstedt, Granollers, Spain) coated tubes.[31] At each time point, 0.40 mL of blood was collected, meaning that a maximum of 2.4 mL was obtained from each animal. […] Blood corresponding to 480 min was taken by a cardiac puncture with the animal under terminal anesthesia. Plasma was immediately obtained by centrifugation at 1500g at 4 °C for 15 min (Centrifuge Megafuge 1.0R, Heraeus, Boadilla, Spain) and kept at −20 °C until analysis.
Hydroxytyrosol and its metabolites in plasma were determined by liquid–liquid extraction followed by LC-MS/MS analysis as previously described.[11] Briefly, 200 μL of plasma was mixed with 10 μL of freshly prepared 10% ascorbic acid followed by 10 μL of 0.5% acetic acid and 10 μL of 2-(3-hydroxyphenyl) ethanol (10 μM, I.S.). Then, 2 mL of ethyl acetate was added to the samples that were vigorously mixed in a vortex (5 min), placed into an ultrasonic bath (10 min), and centrifuged at 1500g at 4 °C (15 min) (Centrifuge Megafuge 1.0R). A second extraction of the pellet with 2 mL of ethyl acetate was carried out. Subsequently, the two pooled supernatants were evaporated to dryness, reconstituted with 100 μL of 80% methanol, placed into amber vials, and immediately analyzed by LC-MS/MS.
The plasmatic concentrations were calculated by the interpolation of the peak area ratio of hydroxytyrosol versus I.S. on a calibration curve. Calibration standards were constructed with blank plasma obtained by cardiac puncture from overnight fasted rats that had never received either table olives or hydroxytyrosol. […] Results were expressed in nmol per liter of plasma (nmol/L). The method was validated following the EMA guidelines[33] at six different concentrations ranging from 0 to 250 nmol/L analyzed on three different days.
Individual PK of hydroxytyrosol and its metabolites were estimated from the plasma concentrations versus time profiles of each animal, through a noncompartmental analysis (NCA) with Phoenix-64 (Build 8.3.4.295, Certara, Princeton, N.J., USA). All concentrations of each pharmacokinetic profile were considered for NCA because the values obtained were above the LOQ. Peak plasma concentration (Cmax) and time to peak plasma concentration (Tmax) were determined by visual inspection of the pharmacokinetic profiles. The apparent elimination rate constant (λz) was estimated from the terminal slope of the semilogarithmic concentration–time curve. The apparent elimination half-life (t1/2λz) was calculated as t1/2z = 0.693/λz. The area under the plasma concentration–time curve from time zero to the last experimental time (AUCt) with analyte concentrations above the LOQ, was calculated by the linear-log trapezoidal rule. The area from time zero to infinity (AUC0–∞) was calculated by adding to the AUCt value the extrapolated area calculated as the ratio between the predicted concentration (Ct) at the last sampling time with concentrations above the LOQ and λz. The mean residence time (MRT0–∞) was given by the ratio of the area under the first-moment curve (AUMC0–∞) to the area under the zero-moment curve (AUC0–∞). The ratio indicating the relative exposure of each metabolite with respect to hydroxytyrosol (AUC0–∞m/AUC0–∞) was also calculated for all of the metabolites. […]

[2] = cited from earlier work; for share represented by hydroxytyrosol sulfates: ref Kotronoulas et al. 39
[3] = 30 olives group (hydroxytyrosol 2.95 mg/kg oral), listed as hydroxytyrosol sulfate M1-b
[4] = 60 olives group (hydroxytyrosol 5.89 mg/kg oral), listed as hydroxytyrosol sulfate M1-b
[5] = both doses (30 and 60 olives groups)
[6] = 30 olives group (hydroxytyrosol 2.95 mg/kg oral), listed as hydroxytyrosol sulfate M1-a
[7] = 60 olives group (hydroxytyrosol 5.89 mg/kg oral), listed as hydroxytyrosol sulfate M1-a

Substance: hydroxytyrosol sulfate [M1-b]
- AUC0–∞ ([1]; 30 olives group (3.85 g olives/kg, hydroxytyrosol 2.95 mg/kg oral), listed as hydroxytyrosol sulfate M1-b): 28084 (20399, 38664)^a min·nmol/L
- Cmax/D [1, 3]: 0.0582 (0.0343, 0.0985)^a
- AUC0–∞/D [1, 3]: 5.33 (3.89, 7.31)^a
- AUCt/D [1, 3]: 5.11 (3.78, 6.90)^a
- Cl/F·fm (apparent clearance of metabolite) [1, 3]: 0.68 (0.49, 0.94)^a L/min/kg
- MRT0–∞ [1, 3]: 141.4 (118.1, 169.3)^a min
- Vdarea/F·fm (apparent volume of distribution of metabolite, terminal phase) [1, 3]: 85.0 (57.2, 126)^a L/kg
- Vss/F·fm (apparent steady-state volume of distribution of metabolite) [1, 3]: 96.4 (62.6, 148)^a L/kg
- t1/2λz (apparent elimination half-life) [1, 3]: 86.4 (67.7, 110)^a min
- λz (apparent elimination rate constant) [1, 3]: 0.0080 (0.0063, 0.01024)^a 1/min
- Tmax [1, 3]: 30.50 (30,120)^a min
- AUCt [1, 3]: 26907 (19824, 36520)^a min·nmol/L
- Cmax ([1]; 30 olives group: single oral 3.85 g destoned olives/kg (hydroxytyrosol 2.95 mg/kg), n = 6, listed as hydroxytyrosol sulfate M1-b): 306 nM
- AUC0–∞ ([1]; 60 olives group (7.70 g olives/kg, hydroxytyrosol 5.89 mg/kg oral), listed as hydroxytyrosol sulfate M1-b): 80006 (65787, 97299)^b min·nmol/L
- Cmax/D [1, 4]: 0.0491 (0.0333, 0.0726)^a
- AUC0–∞/D [1, 4]: 7.17 (5.62, 9.14)^a
- AUCt/D [1, 4]: 6.05 (4.76, 7.70)^a
- Cl/F·fm (apparent clearance of metabolite) [1, 4]: 0.48 (0.39, 0.58)^a L/min/kg
- MRT0–∞ [1, 4]: 198.8 (139.0, 284.3)^a min
- Vdarea/F·fm (apparent volume of distribution of metabolite, terminal phase) [1, 4]: 75.1 (45.7, 123)^a L/kg
- Vss/F·fm (apparent steady-state volume of distribution of metabolite) [1, 4]: 83.5 (61.6, 112.9)^a L/kg
- t1/2λz (apparent elimination half-life) [1, 4]: 129.3 (74.1, 225.6)^a min
- λz (apparent elimination rate constant) [1, 4]: 0.0054 (0.0031, 0.0094)^a 1/min
- Tmax [1, 4]: 38 (30, 100)^a min
- AUCt [1, 4]: 67548 (53591, 85140)^b min·nmol/L
- Cmax ([1]; 60 olives group: single oral 7.70 g destoned olives/kg (hydroxytyrosol 5.89 mg/kg), n = 7, listed as hydroxytyrosol sulfate M1-b): 548 nM
- Vss/F·fm and Vdarea/F·fm [1, 5]: ~90 L/kg
- half-life (t1/2λz) [1, 5]: approximately 2 h
- mean residence time (MRT0–∞) [1, 5]: around 3 h
- percentage of the AUC of each compound divided by the AUC of the sum of all of them [1]: approximately 73%

Substance: hydroxytyrosol sulfate
- share in rat plasma ([2]; after phenolic extract from olive cake containing 10.35 mg/kg of hydroxytyrosol, ref Serra et al. 23): 92%
- share represented by hydroxytyrosol sulfates ([2]; oral 10 mg/kg of hydroxytyrosol to rats): 60%
- share represented by hydroxytyrosol sulfates ([2]; oral 100 mg/kg of hydroxytyrosol to rats): 75%

Substance: hydroxytyrosol sulfate [M1-a]
- AUC0–∞ ([1]; 30 olives group (3.85 g olives/kg, hydroxytyrosol 2.95 mg/kg oral), listed as hydroxytyrosol sulfate M1-a): 4765 (3491, 6504)^a min·nmol/L
- Cmax/D [1, 6]: 0.00899 (0.00522, 0.01546)^a
- AUC0–∞/D [1, 6]: 0.90 (0.68, 1.23)^a
- AUCt/D [1, 6]: 0.82 (0.60, 1.11)^a
- Cl/F·fm (apparent clearance of metabolite) [1, 6]: 4.02 (2.95, 5.48)^a L/min/kg
- MRT0–∞ [1, 6]: 173 (121.9, 245.5)^a min
- Vdarea/F·fm (apparent volume of distribution of metabolite, terminal phase) [1, 6]: 491 (190, 1264)^a L/kg
- Vss/F·fm (apparent steady-state volume of distribution of metabolite) [1, 6]: 616 (339, 1120)^a L/kg
- t1/2λz (apparent elimination half-life) [1, 6]: 130.1 (64.5, 262.2)^a min
- λz (apparent elimination rate constant) [1, 6]: 0.0053 (0.0026, 0.011)^a 1/min
- Tmax [1, 6]: 45.5 (30, 120)^a min
- AUCt [1, 6]: 4321 (3152, 5924)^a min·nmol/L
- Cmax ([1]; 30 olives group: single oral 3.85 g destoned olives/kg (hydroxytyrosol 2.95 mg/kg), n = 6, listed as hydroxytyrosol sulfate M1-a): 47.3 nM
- AUC0–∞ ([1]; 60 olives group (7.70 g olives/kg, hydroxytyrosol 5.89 mg/kg oral), listed as hydroxytyrosol sulfate M1-a): 13133 (9812, 17577)^b min·nmol/L
- Cmax/D [1, 7]: 0.00872 (0.00562, 0.01354)^a
- AUC0–∞/D [1, 7]: 1.18 (0.84, 1.64)^a
- AUCt/D [1, 7]: 1.02 (0.75, 1.38)^a
- Cl/F·fm (apparent clearance of metabolite) [1, 7]: 2.91 (2.17, 3,89)^a L/min/kg
- MRT0–∞ [1, 7]: 188.3 (143.6, 246,9)^a min
- Vdarea/F·fm (apparent volume of distribution of metabolite, terminal phase) [1, 7]: 479 (290, 790)^a L/kg
- Vss/F·fm (apparent steady-state volume of distribution of metabolite) [1, 7]: 548 (380, 789)^a L/kg
- t1/2λz (apparent elimination half-life) [1, 7]: 129.4 (83.0, 201.6)^a min
- λz (apparent elimination rate constant) [1, 7]: 0.0054 (0.0034, 0.0083)^a 1/min
- Tmax [1, 7]: 36 (30, 42)^a min
- AUCt [1, 7]: 11376 (8674, 14919)^b min·nmol/L
- Cmax ([1]; 60 olives group: single oral 7.70 g destoned olives/kg (hydroxytyrosol 5.89 mg/kg), n = 7, listed as hydroxytyrosol sulfate M1-a): 97.3 nM
- AUC ratio of metabolite versus parent hydroxytyrosol (AUC0–∞m/AUC0–∞) [1, 5]: around 1.5
- Vss/F·fm and Vdarea/F·fm [1, 5]: approximately 500 L/kg
- half-life (t1/2λz) [1, 5]: approximately 2 h
- mean residence time (MRT0–∞) [1, 5]: around 3 h
- percentage of the AUC of each compound divided by the AUC of the sum of all of them [1]: 12%
